Laboratory results taken from patent US20110207751A1, “HETEROCYCLIC COMPOUNDS AND USES AS ANTICANCER AGENTS” (priority 2010, published 2011).

Columns and labels:
[1] = system: tubulin (colchicine-binding site); experiment: Spin column assay with [^3H]colchicine; details: tubulin with [^3H]colchicine and unlabeled competitor, 37° C. 1 h
Protocol: (§1) Spin column assay. […] The reaction mixtures were incubated at 37° C. for 1 h. The samples were loaded onto Illustra™ MicroSpin™ G-50 columns (GE Healthcare) previously equilibrated with the buffer solution. The columns were placed into 1.5-ml tubes and spun at 750 g for 2 min at room temperature, and radioactivity in the flow-through was analyzed by a scintillation counter.

[2] = system: KB200 cells over-expressing multiple drug resistant (MDR) gene; experiment: Inhibition of cell proliferation, xCelligence cell index; format: cell-based; details: Homo sapiens, 72 hr post compound treatment, read-out: calculated IC50
Excerpt: (§2) The biological activity of compounds disclosed herein was monitored and profiled using the Real-Time Cell Electronic Sensing (RT-CES®) system from ACEA Biosciences, Inc. The RT-CES system utilizes cell-substrate impedance technology to monitor cellular behavior inside tissue culture wells in a microtiter plate format. The technology features in the integration of molecular and cell biology with microelectronics and is based on the electronic detection of biological assay process.
For measurement of cell-substrate or cell-electrode impedance using RT-CES technology, microelectrodes having appropriate geometries are fabricated onto the bottom surfaces of microtiter plate or similar device, facing into the wells. Cells are introduced into the wells of the devices, and make contact to and attach to the electrode surfaces. The presence, absence or change of properties of cells affects the electronic and ionic passage on the electrode sensor surfaces. Measuring the impedance between or among electrodes provides important information about biological status of cells present on the sensors. When there are changes to the biological status of the cells analogue electronic readout signals are measured automatically and in real time, and are converted to digital signals for processing and for analysis. In a RT-CES system, a cell index (arbitrary representation of change in impedance) is automatically derived and provided based on measured electrode impedance values. The cell index obtained for a given well reflects: 1) how many cells are attached to the electrode surfaces in this well; 2) how well cells are attached to the electrode surfaces in this well. Thus, the more the cells of same type in similar physiological conditions attach the electrode surfaces, the larger the cell index. And, the better the cells attach to the electrode surfaces (e.g., the cells spread-out more to have larger contact areas, or the cells attach tighter to electrode surfaces), the larger the cell index.
To quantify cell status based on the measured cell-electrode impedance, a parameter termed Cell Index is derived. Cell Index is a quantitative measure of the status of the cells in an electrode-containing well. Under the same physiological conditions, more cells attached on to the electrodes leads to larger cell-electrode resistance value, leading to a larger value for Cell Index. Furthermore, for the same number of cells present in the well, a change in the cell status such as morphology will lead to a change in the Cell Index. […]
The efficacy of these compounds was also tested against KB200 cell over-expressing multiple drug resistant (MDR) gene. […] The cell status was monitored prior to and after the compound addition using xCelligence system (Roche). […]

[3] = system: KB cells (parental cervical cancer cell line); experiment: as above; format: cell-based; details: Homo sapiens, 72 hr post compound treatment, read-out: calculated IC50
Excerpt: as §2
For measurement of cell-substrate or cell-electrode impedance using RT-CES technology, microelectrodes having appropriate geometries are fabricated onto the bottom surfaces of microtiter plate or similar device, facing into the wells. Cells are introduced into the wells of the devices, and make contact to and attach to the electrode surfaces. The presence, absence or change of properties of cells affects the electronic and ionic passage on the electrode sensor surfaces. Measuring the impedance between or among electrodes provides important information about biological status of cells present on the sensors. When there are changes to the biological status of the cells analogue electronic readout signals are measured automatically and in real time, and are converted to digital signals for processing and for analysis. In a RT-CES system, a cell index (arbitrary representation of change in impedance) is automatically derived and provided based on measured electrode impedance values. The cell index obtained for a given well reflects: 1) how many cells are attached to the electrode surfaces in this well; 2) how well cells are attached to the electrode surfaces in this well. […]
To quantify cell status based on the measured cell-electrode impedance, a parameter termed Cell Index is derived. Cell Index is a quantitative measure of the status of the cells in an electrode-containing well. […]
The parental cervical cancer cell line, KB cells were first tested. […] The cell status was monitored prior to and after the compound addition using xCelligence system (Roche). […]

[4] = system: tubulin (vinblastine-binding site); experiment: Spin column assay with [^3H]vinblastine; details: tubulin with [^3H]vinblastine and unlabeled competitor, 37° C. 1 h
Protocol: as §1

## CC[C@]1(O)C[C@@H]2CN(CCc3c([nH]c4ccccc34)[C@@](C(=O)OC)(c3cc4c(cc3OC)N(C)[C@H]3[C@@](O)(C(=O)OC)[C@H](OC(C)=O)[C@]5(CC)C=CCN6CC[C@]43[C@@H]65)C2)C1 [vinblastine, reference compound]
[1]
  amount of [^3H]colchicine in the flow-through: did not influence the amount of [^3H]colchicine in the flow-through
[2]
  IC50: 135 nM
[3]
  IC50: 4.74 nM
[4]
  amount of [^3H]vinblastine in the flow-through: reduced the amount of [^3H]vinblastine found in the flow-through in a concentration-dependent manner
